Experimental data published in ChEMBL document CHEMBL4433242, “Rapalogs Potential as Practical Alternatives to Rapamycin” (ACS Med Chem Lett, 2019).

Molecular target: Serine/threonine-protein kinase mTOR (Mus musculus, UniProt Q9JLN9)
Assay: Inhibition of mTOR in mouse TSC1-/- MEF cells assessed as inhibition of S6 Ser240/244 phosphorylation incubated for 2 hrs by fluorescence based assay
Assay type: cell-based

Structure (SMILES) | IC50
CO[C@@H]1C[C@H](C[C@@H](C)[C@@H]2CC[C@H](C)/C=C(\C)[C@@H](O)[C@@H](OC)C(=O)[C@H](C)C[C@H](C)/C=C/C=C/C=C(\C)[C@H](N3CCCS3(=O)=O)C[C@@H]3CC[C@@H](C)[C@@](O)(O3)C(=O)C(=O)N3CCCC[C@H]3C(=O)O2)CC[C@H]1O | 0.274 nM
CO[C@@H]1C[C@H](C[C@@H](C)[C@@H]2CC[C@H](C)/C=C(\C)[C@@H](O)[C@@H](OC)C(=O)[C@H](C)C[C@H](C)/C=C/C=C/C=C(\C)C(N3CCN(CCO)C3=O)C[C@@H]3CC[C@@H](C)[C@@](O)(O3)C(=O)C(=O)N3CCCC[C@H]3C(=O)O2)CC[C@H]1O (stereo not given in full) | 153 nM
CO[C@@H]1C[C@H](C[C@@H](C)[C@@H]2CC[C@H](C)/C=C(\C)[C@@H](O)[C@@H](OC)C(=O)[C@H](C)C[C@H](C)/C=C/C=C/C=C(\C)C(N3CCCS3(=O)=O)C[C@@H]3CC[C@@H](C)[C@@](O)(O3)C(=O)C(=O)N3CCCC[C@H]3C(=O)O2)CC[C@H]1OP(C)(C)=O (stereo not given in full) | 3.2 nM

Further molecules by falling IC50, results first:

IC50 | Structure (SMILES)
0.374 nM | CO[C@@H]1C[C@H](C[C@@H](C)[C@@H]2CC[C@H](C)/C=C(\C)[C@@H](O)[C@@H](OC)C(=O)[C@H](C)C[C@H](C)/C=C/C=C/C=C(\C)C(N3CCS3(=O)=O)C[C@@H]3CC[C@@H](C)[C@@](O)(O3)C(=O)C(=O)N3CCCC[C@H]3C(=O)O2)CC[C@@H]1n1cnnn1 (stereo not given in full)
0.17 nM | CO[C@@H]1C[C@H](C[C@@H](C)[C@@H]2CC[C@H](C)/C=C(\C)[C@@H](O)[C@@H](OC)C(=O)[C@H](C)C[C@H](C)/C=C/C=C/C=C(\C)C(N3CCS3(=O)=O)C[C@@H]3CC[C@@H](C)[C@@](O)(O3)C(=O)C(=O)N3CCCC[C@H]3C(=O)O2)CC[C@H]1O (stereo not given in full)
